Laboratory results as given in patent publication US20230278966A1, “TRIAZOLONE COMPOUNDS FOR CONTROLLING INVERTEBRATE PESTS” (FMC Corporation, priority 2020, published 2023).

System: Root Knot Nematodes
Assay: Nematicide assay: control of Root Knot Nematode galling on host plant roots
Type: in vivo
Conditions: drip application, 4-day-old host plant, assessed after 8 days; for pest or weed control at 500 ppm / pest or weed control at 100 ppm: 192 h, read-out: control efficacy (decrease of nematode gall formation on roots compared to the inoculated control)
Procedure: Test compounds were formulated using a solution containing 25% acetone and 75% water. The formulated compounds were applied in 330 μl of liquid through a drip applicator that was positioned above the top of each test unit. Test compounds were applied at 500 ppm and 100 ppm and each test was replicated three times. For evaluating control of Root Knot Nematodes the test unit consisted of a small open container with a 4-day-old host plant inside. The formulated compounds were dripped into the container and the nematodes were applied following the compound's application. The test units were held for 8 days in a growth chamber at 29.4° C. or 85 F. Root invasion by the nematodes was then visually assessed based on presence or absence of galls on the roots.

For `CC(C)(C)n1c(C(F)(F)F)nn(CCNC(=O)c2c(F)cccc2C(F)(F)F)c1=O` [Compound 128], the “control efficacy (decrease of nematode gall formation on roots compared to the inoculated control)” value (500 ppm) was 100%.
Compound `CC(C)(C)n1c(C(F)(F)F)nn(CCNC(=O)c2cccnc2C(F)(F)F)c1=O` [Compound 93] has a pest or weed control at 500 ppm (500 ppm) of 100%.
With `O=C(NCCn1nc(C(F)(F)F)n(C2(C(F)(F)F)CCC2)c1=O)c1ccccc1C(F)(F)F` [Compound 139] the “control efficacy (decrease of nematode gall formation on roots compared to the inoculated control)” value (500 ppm) was 100%.
Work on `O=C(NCCn1nc(C(F)(F)F)n(CC(F)(F)F)c1=O)c1ccccc1Cl` [Compound 30] yielded a pest or weed control at 500 ppm (500 ppm) of 100%.
`Cn1c(C(F)(F)F)nn(CCNC(=O)c2ccccc2C(F)(F)F)c1=O` [Compound 14, N-[2-[4,5-Dihydro-4-methyl-5-oxo-3-(trifluoromethyl)-1H-1,2,4-triazol-1-yl]ethyl]-2-(trifluoromethyl)benzamide] gave a pest or weed control at 500 ppm (500 ppm) of 100%.
`CC(C)(n1c(C(F)(F)F)nn(CCNC(=O)c2ncccc2C(F)(F)F)c1=O)C(F)(F)F` [Compound 160] was tested, and the “control efficacy (decrease of nematode gall formation on roots compared to the inoculated control)” value (500 ppm) was 100%.
Work on `O=C(NCCn1nc(C(F)(F)F)n(C2CC(F)(F)C2)c1=O)c1cccnc1C(F)(F)F` [Compound 173] yielded a pest or weed control at 500 ppm (500 ppm) of 100%.
`CC(C)n1c(C(F)(F)F)nn(CCNC(=O)c2ccccc2Cl)c1=O` [Compound 31] showed a pest or weed control at 500 ppm (500 ppm) of 100%.
`O=C(NCCn1nc(C(F)(F)F)n(C2(C(F)(F)F)CCC2)c1=O)c1cccnc1Cl` [Compound 170] gave a pest or weed control at 500 ppm (500 ppm) of 100%.
In the case of `CC(C)(n1c(C(F)(F)F)nn(CCNC(=O)c2cccnc2Cl)c1=O)C(F)(F)F` [Compound 171], the “control efficacy (decrease of nematode gall formation on roots compared to the inoculated control)” value (100 ppm) is reported as 100% and the “control efficacy (decrease of nematode gall formation on roots compared to the inoculated control)” value (500 ppm) is reported as 100%.
With `CC(n1c(C(F)(F)F)nn(CCNC(=O)c2cccnc2Cl)c1=O)C(F)(F)F` (centres unmarked) [Compound 166] the “control efficacy (decrease of nematode gall formation on roots compared to the inoculated control)” value (500 ppm) was 100%.
In the case of `CC1(n2c(C(F)(F)F)nn(CCNC(=O)c3ccccc3C(F)(F)F)c2=O)CC1` [Compound 45], the pest or weed control at 500 ppm (500 ppm) is reported as 100%.
`O=C(NCCn1nc(C(F)(F)F)n(CC2CC2)c1=O)c1ccccc1C(F)(F)F` [Compound 32, N-[2-[4-(Cyclopropylmethyl)-4,5-dihydro-5-oxo-3-(trifluoromethyl)-1H-1,2,4-triazol-1-yl]ethyl]-2-(trifluoromethyl)benzamide] was tested, and the pest or weed control at 500 ppm (500 ppm) was 100%.
With `Cc1ccccc1C(=O)NCCn1nc(C(F)(F)F)n(C(C)(C)C(F)(F)F)c1=O` [Compound 135] the “control efficacy (decrease of nematode gall formation on roots compared to the inoculated control)” value (500 ppm) was 100%.
In the case of `CC(C)(C)n1c(C(F)(F)F)nn(CCNC(=O)c2ccccc2C(F)(F)F)c1=O` [Compound 10, N-[2-[4-(1,1-Dimethylethyl)-4,5-dihydro-5-oxo-3-(trifluoromethyl)-1H-1,2,4-triazol-1-yl]ethyl]-2-(trifluoromethyl)benzamide], the pest or weed control at 500 ppm (500 ppm) is reported as 100%.
`O=C(NCCn1nc(C(F)(F)F)n(C2CC(F)(F)C2)c1=O)c1ccccc1C(F)(F)F` [Compound 145] was tested, and the “control efficacy (decrease of nematode gall formation on roots compared to the inoculated control)” value (100 ppm) was 100% and the “control efficacy (decrease of nematode gall formation on roots compared to the inoculated control)” value (500 ppm) was 100%.
Work on `CC(C)(n1c(C(F)(F)F)nn(CCNC(=O)c2ccccc2C(F)(F)F)c1=O)C(F)(F)F` [Compound 179, N-[2-[4,5-Dihydro-5-oxo-4-(2,2,2-trifluoro-1,1-dimethylethyl)-3-(trifluoromethyl)-1H-1,2,4-triazol-1-yl]ethyl]-2-(trifluoromethyl)benzamide] yielded a pest or weed control at 100 ppm (100 ppm) of 100% and a pest or weed control at 500 ppm (500 ppm) of 100%.
With `CC(C)n1c(C(F)(F)F)nn(CCNC(=O)c2ccccc2C(F)(F)F)c1=O` [Compound 11] the pest or weed control at 500 ppm (500 ppm) was 100%.
In the case of `CC(C)(n1c(C(F)(F)F)nn(CCNC(=O)c2cccnc2C(F)(F)F)c1=O)C(F)(F)F` [Compound 165], the “control efficacy (decrease of nematode gall formation on roots compared to the inoculated control)” value (100 ppm) is reported as 100% and the “control efficacy (decrease of nematode gall formation on roots compared to the inoculated control)” value (500 ppm) is reported as 100%.
In the case of `CC(C)n1c(C(F)F)nn(CCNC(=O)c2ccccc2C(F)(F)F)c1=O` [Compound 9], the pest or weed control at 500 ppm (500 ppm) is reported as 100%.
For `O=C(NCCn1nc(C(F)(F)F)n(C2CC(F)(F)C2)c1=O)c1ccccc1Br` [Compound 143], the “control efficacy (decrease of nematode gall formation on roots compared to the inoculated control)” value (500 ppm) was 100%.
`CC(C)(C)n1c(C(F)(F)F)nn(CCNC(=O)c2ccccc2Br)c1=O` [Compound 50, 2-Bromo-N-[2-[4-(1,1-dimethylethyl)-4,5-dihydro-5-oxo-3-(trifluoromethyl)-1H-1,2,4-triazol-1-yl]ethyl]benzamide] was tested, and the pest or weed control at 500 ppm (500 ppm) was 100%.
`O=C(NCCn1nc(C(F)(F)F)n(C2CC2)c1=O)c1ccccc1C(F)(F)F` [Compound 2] gave a pest or weed control at 500 ppm (500 ppm) of 100%.
For `CC(C)(C)n1c(C(F)(F)F)nn(CCNC(=O)c2cccnc2Cl)c1=O` [Compound 92, 2-Chloro-N-[2-[4-(1,1-dimethylethyl)-4,5-dihydro-5-oxo-3-(trifluoromethyl)-1H-1,2,4-triazol-1-yl]ethyl]-3-pyridinecarboxamide], the pest or weed control at 100 ppm (100 ppm) was 100% and the pest or weed control at 500 ppm (500 ppm) was 100%.
Work on `O=C(NCCn1nc(C(F)(F)F)n(CC(F)(F)F)c1=O)c1ccccc1C(F)(F)F` [Compound 1] yielded a pest or weed control at 500 ppm (500 ppm) of 100%.
In the case of `CC(n1c(C(F)(F)F)nn(CCNC(=O)c2cccnc2C(F)(F)F)c1=O)C(F)(F)F` (centres unmarked) [Compound 175], the “control efficacy (decrease of nematode gall formation on roots compared to the inoculated control)” value (500 ppm) is reported as 100%.
Compound `CC(C)(C)n1c(C(F)(F)F)nn(CCNC(=O)c2ccccc2Cl)c1=O` [Compound 38, 2-Chloro-N-[2-[4-(1,1-dimethylethyl)-4,5-dihydro-5-oxo-3-(trifluoromethyl)-1H-1,2,4-triazol-1-yl]ethyl]benzamide] has a pest or weed control at 500 ppm (500 ppm) of 100%.
`CCn1c(C(F)(F)F)nn(CCNC(=O)c2ccccc2C(F)(F)F)c1=O` [Compound 12] was tested, and the pest or weed control at 500 ppm (500 ppm) was 100%.
For `O=C(NCCn1nc(C(F)(F)F)n(C2CC(F)(F)C2)c1=O)c1ccccc1Cl` [Compound 148], the “control efficacy (decrease of nematode gall formation on roots compared to the inoculated control)” value (100 ppm) was 100% and the “control efficacy (decrease of nematode gall formation on roots compared to the inoculated control)” value (500 ppm) was 100%.
`O=C(NCCn1nc(C(F)(F)F)n(C2CC2)c1=O)c1ccccc1Cl` [Compound 59] showed a pest or weed control at 500 ppm (500 ppm) of 100%.
With `O=C(NCCn1nc(C(F)(F)F)n(C2(C(F)(F)F)CCC2)c1=O)c1ccccc1Br` [Compound 142] the “control efficacy (decrease of nematode gall formation on roots compared to the inoculated control)” value (500 ppm) was 100%.
`CC(C)(n1c(C(F)(F)F)nn(CCNC(=O)c2ccccc2Br)c1=O)C(F)(F)F` [Compound 133] was tested, and the “control efficacy (decrease of nematode gall formation on roots compared to the inoculated control)” value (100 ppm) was 100% and the “control efficacy (decrease of nematode gall formation on roots compared to the inoculated control)” value (500 ppm) was 100%.
In the case of `O=C(NCCn1nc(C(F)(F)F)n(C2(C(F)(F)F)CCC2)c1=O)c1ccccc1Cl` [Compound 149], the “control efficacy (decrease of nematode gall formation on roots compared to the inoculated control)” value (500 ppm) is reported as 100%.
In the case of `O=C(NCCn1nc(C(F)(F)F)n(C2(C(F)(F)F)CCC2)c1=O)c1cccnc1C(F)(F)F` [Compound 169], the pest or weed control at 500 ppm (500 ppm) is reported as 100%.
